Measurements from article PMC11420952, “A Chemical Approach to Assess the Impact of Post-translational Modification on MHC Peptide Binding and Effector Cell Engagement” (ACS Chemical Biology, 2024).
Where no end group is shown, it is not given here.

Biological target: T1, H-2K^b (Mus musculus, UniProt P01901)
T1 construct: endogenous in cells; host or cells: RMA-S cells (TAP-deficient)
T1 sequence (P01901 22-369): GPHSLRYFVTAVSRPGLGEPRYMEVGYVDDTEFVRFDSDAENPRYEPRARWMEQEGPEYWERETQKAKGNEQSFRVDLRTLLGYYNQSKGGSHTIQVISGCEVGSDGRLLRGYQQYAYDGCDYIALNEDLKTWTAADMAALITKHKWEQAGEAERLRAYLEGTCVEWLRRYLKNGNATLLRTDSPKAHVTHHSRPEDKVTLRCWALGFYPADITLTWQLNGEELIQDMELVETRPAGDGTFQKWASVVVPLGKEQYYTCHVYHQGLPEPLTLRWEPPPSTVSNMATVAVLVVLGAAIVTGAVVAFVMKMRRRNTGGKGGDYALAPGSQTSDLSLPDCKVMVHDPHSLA
T1 sequence (P01887 21-119 partner): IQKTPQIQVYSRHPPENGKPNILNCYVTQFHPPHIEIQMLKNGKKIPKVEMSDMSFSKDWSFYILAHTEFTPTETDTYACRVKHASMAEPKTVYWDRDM
Assay: cell-based
Details: sarsWT concentration scan; 1 h 26 °C then 6 h 37 °C; APC anti-mouse H-2K^b antibody, flow cytometry; Figure S2, mean ± SD n = 3; read-out: EC50 of pMHC stabilization on RMA-S cells

## ESIVRFPNI [sarsWT]
  EC50: 1.7 µM
